For assay [1], the system named is Purified breast cancer cells from 67 patient (Pt) biopsies. Description: MiCK assay of drug-induced apoptosis, breast cancer specimens. In kind it is cell-based, human. Particulars: for KU Mean / KU Median: kinetic units of apoptosis; for KU Mean: mean over N patient samples (at least 9 per drug); for KU Median: median over N patient samples; for Mean Difference (95% CI) of KU vs Abraxane: drug minus Abraxane; for Mean Difference (95% CI) of KU vs Vincristine: drug minus Vincristine. Here is the method: Apoptosis(KU)=(VmaxDrug Candidate Treated−VmaxControl)×60×X/(ODcontrol−ODblank)
Within 24 to 48 hours of collection, the specimen was minced, digested with 0.25% trypsin and 0.08% DNase for 1-2 hours at 37 C.°, and then filtered through a 100 micrometer cell strainer. When necessary, non-viable cells were removed by density gradient centrifugation. The cell suspension was then incubated for 30 min at 37° C. in a tissue culture flask to remove macrophages by adherence. For epithelial tumors lymphocytes were removed by 30 minute incubation with CD2 antibody conjugated magnetic beads for T lymphocytes and CD19 antibody conjugated magnetic beads for B lymphocytes. Remaining macrophages were removed, if necessary, using CD14 antibody conjugated magnetic beads. The final cell suspension was plated into a 96-well half-area plate, 120 microliter aliquot per well. The plate was incubated overnight at 37° C. with 5% carbon dioxide humidified atmosphere. 5×10^4 to 1.5×10^5 cells were seeded per well depending on the cell volume to give adequate well-bottom coverage.
Within 24 to 48 hours of collection, the specimen was treated as follows in order to purify and isolate cells from solid tumors: • Take the specimen out of the transport tube. • Put in a petri dish in 13 ml of PBS+high concentration of antibiotics (200 units/ml Penicillin+200 μg/ml streptomycin) and take measurements and picture of the specimen. […] In that case, one may make the determination to do a “pre-filtration” using sterile gauze over a 50 ml tube. Then proceed with the cell strainer filtration process referenced above. • Centrifuge the filtered cell suspension 1500 RPM 5 min • Discard the supernatant. To the pellet, add 5 ml of red blood cell lysis solution (standard NH4Cl containing lysis solution: Nh4Cl0.15M+KHCO3 10 mM+EDTA-4Na 0.1 mM, pH 7.2), incubate 2-3 min and add 5 ml of RPMI 10% FBS. • Centrifuge 5 min 1500 RPM. Resuspend the pellet in RPMI 10% FBS (1-10 ml depending on the pellet size). • Collect the second fraction in the enzyme and repeat the steps above. • Check the viability of all fractions and pool. Do a cytospin stain with Wright Giemsa to verify the cell content of the population. NOTE: this is done numerous times during the process of purification. • 3) When necessary, non-viable cells were removed by density gradient centrifugation. • Density gradient centrifugation (optiprep): first layer=2 ml cells+4.45 ml optiprep 40% in RPMI, second layer=optiprep 22.5% in RPMI, 3rd layer=0.5 ml of RPMI. Centrifuge at 2000 RPM for 20 min • Collect the viable cell layer, add 10 ml of RPMI 10% FBS, centrifuge at 1500 RPM for 5 min • Resuspend the pellet in RPMI 10% FBS (volume depends on the pellet size and on the next step required). • If mucin is present in the specimen: resuspend the pellet in 10 ml of PBS+20 mM DTT and incubate at 4° C. for 30 min to disintegrate the mucin. Wash with RPMI 1500 rpm for 5 min Resuspend the pellet in RPMI 10% FBS. • If the specimen is highly necrotic with presence of debris: Percoll 20% in HBSS, centrifuge at 800×g for 10 min • 4) The cell suspension was then incubated for 20 min at 37° C. in a tissue culture flask to remove macrophages by adherence. • The size and quantity of the flask and the volume used depends on the amount of cells.

Assay [2] relates to neoplastic cells collected from spleen and abdominal tumor biopsy specimens. Put plainly: MiCK assay, patient specific cancer cell testing (Example 10). The class given is cell-based, human. Here is the method:
The experiments were conducted on neoplastic cells collected from spleen and abdominal tumor biopsy specimens from a person. The tumor specimens were of an unknown primary. The experiment consisted of using a MiCK assay, according to the present disclosure, to test the effectiveness of 37 potential anti-cancer drugs, combinations of these drugs, and various concentrations of these drugs.
Apoptotic readings greater than 5.0KU in the MiCK assay are considered to be highly sensitive and are associated with a good clinical response. […] It should be noted that the alkylating agents cyclophosphamide and ifosfamide require hepatic metabolic transformation to their active metabolite, 4HC and 4HI respectively, and therefore cannot be tested directly in vitro. For the MiCK assay their active metabolites, 4HC and 4HI respectively were used.

Setting [3] is: person, tumor of unknown primary, maximum apoptotic response over the concentrations tested.
The mark [4] stands for this setting: KU compared per patient, % of 11 patients.
The mark [5] stands for this setting: KU compared per patient, % of 35 patients.
The mark [6] stands for this setting: KU compared per patient, % of 14 patients.

Each structure is given as a SMILES string. Read-outs that look alike come from different tables or passages of the source.

`COc1cc([C@@H]2c3cc4c(cc3[C@@H](O[C@@H]3O[C@@H]5CO[C@@H](C)O[C@H]5[C@H](O)[C@H]3O)[C@H]3COC(=O)[C@H]23)OCO4)cc(OC)c1O` [Etoposide, etoposide]: in assay [1], the “KU Mean” value turned out to be 1.3 KU and the “KU Median” value is given as 1.3 KU. Also, the “Max Resp. (KU)” value in assay [2] (setting [3]) is 0.8 KU.
For the compound `Nc1ccn([C@@H]2O[C@H](CO)[C@@H](O)C2(F)F)c(=O)n1` [Gemzar, gemcitabine], in assay [1], the “KU Mean” value is 1.0 KU and the “KU Median” value was 0.8 KU. For the same compound, in assay [2] (setting [3]), the “Max Resp. (KU)” value is on record as 0.8 KU.
Turning to `O=P1(NCCCl)OCCCN1CCCl` (centres unmarked) [Ifosfamide, ifosfamide], the “Ifosf > Cytox + 0.57” value in assay [1] (setting [4]) is reported as “(0%)”. Also, in assay [1], the “KU Mean” value is recorded as 1.7 KU and the “KU Median” value is 1.5 KU. Further, the “Max Resp. (KU)” value in assay [2] (setting [3]) amounted to 2.6 KU.
Take `CN(Cc1cnc2nc(N)nc(N)c2n1)c1ccc(C(=O)N[C@@H](CCC(=O)O)C(=O)O)cc1` [Methotrexate, methotrexate]: in assay [1], the “KU Mean” value came to 0.9 KU and the “KU Median” value was 0.9 KU. Besides, the “Max Resp. (KU)” value in assay [2] (setting [3]) turned out to be 0.8 KU.
With `O=C1[O][Pt]2([NH][C@@H]3CCCC[C@H]3[NH]2)[O]C1=O` [Oxali, oxaliplatin], in assay [1] (setting [4]), the “Carbo and Cisplatin and Oxali < 1” value was “(9%)”; the “Max (Carbo or Cisplatin) = Oxali +/− 0.57 and both > 1” value was “(36%)”; the “Max (Carbo or Cisplatin) > Oxali by more than 0.57 and Max (Carbo or Cisplatin) > 1” value is listed as “(36%)”; the “Oxali > Max (Carbo or Cisplatin) + 0.57” value is given as “(9%)”. In addition, in assay [1], the “KU Mean” value is 1.9 KU and the “KU Median” value was 1.8 KU. The “Mean Difference (95% CI) of KU vs Carbo” value in assay [1] (patient pairwise comparison, drug minus Carbo) was 0.34 KU. Moreover, the “% >1” value in assay [1] (share of samples with KU >1) is 82%. In assay [1] (share of samples with KU >3), the “% >3” value is given as 9%. For the same compound, the “Max Resp. (KU)” value in assay [2] was determined as 6.7 KU.
In the case of `CC(=O)O[C@H]1C(=O)[C@@]2(C)[C@H]([C@H](OC(=O)c3ccccc3)[C@]3(O)C[C@H](OC(=O)[C@H](O)[C@@H](NC(=O)c4ccccc4)c4ccccc4)C(C)=C1C3(C)C)[C@]1(OC(C)=O)CO[C@@H]1C[C@@H]2O` [Taxol, paclitaxel], in assay [1], the “KU Mean” value stood at 2.1 KU and the “KU Median” value is 1.9 KU. Further, the “Mean Difference (95% CI) of KU vs Abraxane” value in assay [1] (patient pairwise comparison) was 1.20 KU. In assay [2] (setting [3]), the “Max Resp. (KU)” value is on record as 1.6 KU.
For `CC(=O)O[C@@]12CO[C@@H]1C[C@H](O)[C@@]1(C)C(=O)[C@H](O)C3=C(C)[C@@H](OC(=O)[C@H](O)[C@@H](NC(=O)OC(C)(C)C)c4ccccc4)C[C@@](O)([C@@H](OC(=O)c4ccccc4)[C@H]21)C3(C)C` [Taxotere, docetaxel], in assay [1] (setting [5]), the “Taxol and Taxotere < 1” value is “(14%)”; the “Taxotere = Taxol +/− 0.57 and both > 1” value was “(17%)”; the “Taxotere > Taxol by more than 0.57 and Taxotere > 1” value is recorded as “(37%)”. Further, in assay [1] (KU compared per patient, % of 35 patients, listed as docetaxel), the “Taxotere > Taxol by more than 0.57 and Taxotere > 1” value came out at 37%. Further, in assay [1], the “KU Mean” value came to 2.1 KU and the “KU Median” value is recorded as 1.9 KU. The “Mean Difference (95% CI) of KU vs Abraxane” value in assay [1] (patient pairwise comparison) is recorded as 0.98 KU. The “Mean Difference (95% CI) of KU vs Taxol” value in assay [1] (patient pairwise comparison, drug minus Taxol) was determined as 0.05 KU. Also, the “Max Resp. (KU)” value in assay [2] (setting [3]) came out at 2.3 KU.
On to `CC[C@]1(O)C[C@H]2CN(CCc3c([nH]c4ccccc34)[C@@](C(=O)OC)(c3cc4c(cc3OC)N(C=O)[C@H]3[C@@](O)(C(=O)OC)[C@H](OC(C)=O)[C@]5(CC)C=CCN6CC[C@]43[C@@H]65)C2)C1` [Vincristine, vincristine], for which, in assay [1], the “KU Mean” value came to 1.1 KU and the “KU Median” value was determined as 1.0 KU. Moreover, in assay [2] (setting [3]), the “Max Resp. (KU)” value came out at 0.9 KU.
For `CCC1=C[C@@H]2CN(C1)Cc1c([nH]c3ccccc13)[C@@](C(=O)OC)(c1cc3c(cc1OC)N(C)[C@H]1[C@@](O)(C(=O)OC)[C@H](OC(C)=O)[C@]4(CC)C=CCN5CC[C@]31[C@@H]54)C2` [Vinor, vinorelbine], in assay [1] (setting [6]), the “Max (Vcr or Vnbl) > Vinor + 0.57” value is listed as “(0%)”; the “Vcr and Vnbl and Vinor < 1” value is on record as “(14%)”; the “Vinor = Max (Vcr or Vnbl) +/− 0.57 and both > 1” value is recorded as “(36%)”; the “Vinor > Max (Vcr or Vnbl) by more than 0.57 and Vinroel > 1” value is given as “(29%)”. Moreover, in assay [1], the “KU Mean” value was found to be 1.8 KU and the “KU Median” value is reported as 1.5 KU. In addition, the “Mean Difference (95% CI) of KU vs Vincristine” value in assay [1] (patient pairwise comparison) came to 0.63 KU. The “Mean Difference (95% CI) of KU vs Vincristine” value in assay [1] (patient pairwise comparison, listed as vinorelbine) is “APOP>vincristine”. Besides, the “Mean Difference (95% CI) of KU vs Vnbl” value in assay [1] (patient pairwise comparison, drug minus Vnbl) is recorded as 0.14 KU. For the same compound, in assay [2] (setting [3]), the “Max Resp. (KU)” value is on record as 3.1 KU.
As to `CC[C@]1(O)C[C@@H]2CN(CCc3c([nH]c4ccccc34)[C@@](C(=O)OC)(c3cc4c(cc3OC)N(C)[C@H]3[C@@](O)(C(=O)OC)[C@H](OC(C)=O)[C@]5(CC)C=CCN6CC[C@]43[C@@H]65)C2)C1` [Vnbl, Vinblastine], in assay [1], the “KU Mean” value worked out at 1.8 KU and the “KU Median” value was 1.5 KU. For the same compound, the “Mean Difference (95% CI) of KU vs Vincristine” value in assay [1] (patient pairwise comparison) is given as 0.14 KU. The “Max Resp. (KU)” value in assay [2] (setting [3]) came to 1.2 KU.

(Values after patent publication US20150160193A1, “TUMOR CELL ISOLATION/PURIFICATION PROCESS AND METHODS FOR USE THEREOF” (DIATECH ONCOLOGY, priority 2012, published 2015).)
